Reference: patent publication US8741964B2, “Uses of nonenal” (Industry-Academic Cooperation Foundation, Yonsei University, priority 2011, dated 2014)

How the values were obtained:
IL-6 = test: RT-PCR analysis of visceral fat tissues: IL-6 gene expression; assay type: in vivo, mice; details: feeding nonenal in HFD vs HFD
Text: (§1) The obesity-inducing control diet used in the test was high-fat diet (HFD: 40% fat calorie, 17 g lard+3% corn oil/100 g diet). Diets supplemented with nonenal (nonenal-supplemented high fat diet, NED) had the same composition as HFD, except that nonenal was included at 0.2% (see Table 1). The normal diet group (Chow) was fed with commercially available rodent chow. Nonenal was purchased from Sigma-Aldrich.
(§2) 5-week-old male C57BL/6J mice (Orient, Korea) were accustomed to the laboratory environment for 1 week while feeding solid feed. Then, they were randomly divided into normal diet, high-fat diet and test groups and bred for a total of 10 weeks. The diet was given between 10 and 11 a.m. every day together with water. Food intake was measured every day and body weight was measured once a week. In order to avoid transient body weight increase after feed intake, body weight was measured 2 hours after removing the feed. […]
(§3) After adding 1 mL of Trizol agent per 0.1 g of visceral fat tissues, the mixture was homogenized and centrifuged at 12,000×g for 10 min at 4° C. […] The RNA sample concentration was measured at a wavelength of 260 nm and 280 nm using a UV/VIS spectrophotometer (Beckman coulter, DU730) and the integrity of RNA sample was verified by agarose gel electrophoresis. […]

C57BL/6J mice [1] = test: Analysis of lipid level in liver tissues of mice fed test diets; assay type: in vivo; details: 0.2% nonenal in high-fat diet, 10 weeks, as compared to HFD
Text: as §1
(§4) 5-week-old male C57BL/6J mice (Orient, Korea) were accustomed to the laboratory environment for 1 week while feeding solid feed. Then, they were randomly divided into normal diet, high-fat diet and test groups and bred for a total of 10 weeks. The diet was given between 10 and 11 a.m. every day together with water. Food intake was measured every day and body weight was measured once a week. In order to avoid transient body weight increase after feed intake, body weight was measured 2 hours after removing the feed. After fasting the test animal for at least 12 hours and anesthetizing with diethyl ether, blood, liver and visceral fat (epididymal fat, perirenal fat, mesenteric fat and retroperitoneal fat) were taken and weighed after washing with 0.1 M PBS (pH 7.4). Blood taken from the abdominal aorta was centrifuged at 1000×g for 15 minutes for the separation of plasma.
Lipids were extracted from the liver tissue according to Folch et al.'s method Folch J et al., J Biol. Chem. 226: 497-509 (1957)). After adding 1 mL of distilled water to 0.25 g of liver tissue, the liver tissue was homogenized using a Polytron homogenizer (IKA-Werke GmbH & Co., Ultra-Turrax, Staufen, Germany). After adding 5 mL of chloroform:methanol solution (2:1, v/v) to the homogenate and mixing well, the mixture was centrifuged at 1000×g for 10 minutes. After adding 2 mL of chloroform:methanol solution (2:1, v/v) again to the supernatant, the same procedure was repeated to completely separate the lipid components of the liver. […] The dried lipids were dissolved in 1 mL of methanol and then analyzed. […]

microbial growth = details: cited from earlier work
TNF-α = test: RT-PCR analysis of visceral fat tissues: TNF-α gene expression; assay type: in vivo, mice; details: feeding nonenal in HFD vs HFD
Text: as §1, §2, §3

PPARγ2 = test: RT-PCR analysis of visceral fat tissues: PPARγ2 gene expression; assay type: in vivo, mice; details: nonenal supplemented to the HFD vs HFD; to levels similar for the Chow group
Text: as §1, §2, §3

rats = details: cited from earlier work
aP2 = test: RT-PCR analysis of visceral fat tissues: aP2 gene expression; assay type: in vivo, mice; details: nonenal supplemented to the HFD vs HFD; to levels similar for the Chow group
Text: as §1, §2, §3

C57BL/6J mice [2] = test: Body weight, food intake and visceral fat-pad weights of mice fed test diets for 10 weeks; assay type: in vivo
Text: as §1, §4

C/EBPα = test: RT-PCR analysis of visceral fat tissues: C/EBPα gene expression; assay type: in vivo, mice; details: nonenal supplemented to the HFD vs HFD; to levels similar for the Chow group
Text: as §1, §2, §3

C57BL/6J mice [3] = test: Biochemical analysis of blood (plasma lipids, glucose, ALT, AST) of mice fed test diets; assay type: in vivo; details: 10 weeks
Text: as §1, §4
After 10 weeks of breeding, total cholesterol, triglyceride and glucose levels in the plasma and lipid levels in the liver tissue were measured as follows. Total cholesterol, triglyceride, free fatty acid and glucose levels in the plasma were measured twice for each using a commercially available kit (Bio Clinical System). The activity of ALT (alanine aminotransferase) and AST (aspartate aminotransferase) used as liver function indicator were measured twice for each using a commercially available kit (Bio Clinical System, Korea).

[4] = 0.2% nonenal in high-fat diet, as compared to HFD
[5] = 0.2% nonenal in high-fat diet, as compared to HFD group

SMILES: CCCCCC/C=C/C=O [nonenal, trans-2-nonenal]
- HFD-induced elevation in the expression of IL-6 in visceral fat tissues (IL-6): significantly reversed
- decrease of cholesterol level in liver tissue (C57BL/6J mice [1]): 75%
- decrease of free fatty acid level in liver tissue (C57BL/6J mice [1]): 74%
- decrease of triglyceride level in liver tissue (C57BL/6J mice [1]): 78%
- microbial growth inhibitory effects (microbial growth): microbial growth inhibitory effects
- HFD-induced elevation in the expression of TNF-α in visceral fat tissues (TNF-α): significantly reversed
- expression of PPARγ2 gene (mRNA) in visceral fat tissues (PPARγ2): significantly decreased
- LD50 (rats): more than 5,000 mg/kg
- expression of aP2 gene (mRNA) in visceral fat tissues (aP2): significantly decreased
- decrease of body weight gain (C57BL/6J mice [2]; 0.2% nonenal in high-fat diet (NED), as compared to HFD): 49%
- weight of epididymal fat-pad (C57BL/6J mice [2]; [4]): significantly reduced
- weight of mesenteric fat-pad (C57BL/6J mice [2]; [4]): significantly reduced
- weight of perirenal fat-pad (C57BL/6J mice [2]; [4]): significantly reduced
- weight of retroperitoneal fat-pad (C57BL/6J mice [2]; [4]): significantly reduced
- reduction of total visceral fat weight (C57BL/6J mice [2]; NED group vs HFD group): 59%
- expression of C/EBPα gene (mRNA) in visceral fat tissues (C/EBPα): significantly decreased
- reduction of fasting blood sugar level (C57BL/6J mice [3]; [4]): 31%
- lowering of plasma LDL+VLDL cholesterol level (C57BL/6J mice [3]; [5]): 20%
- lowering of plasma free fatty acid level (C57BL/6J mice [3]; [5]): 41%
- lowering of plasma total cholesterol level (C57BL/6J mice [3]; [5]): 19%
- lowering of plasma triglyceride level (C57BL/6J mice [3]; [5]): 37%
- decrease of plasma activity of ALT (C57BL/6J mice [3]; NED group vs HFD group): 28%
- decrease of plasma activity of AST (C57BL/6J mice [3]; NED group vs HFD group): 31%
